Measurements from paper PMC12040169 (PLOS Biology, 2025).

assay: in vitro; settings: human, hela cells, % viability

Structure (SMILES) | viability at 28.5 h, 10 µM
CN(C)C(=O)C1(Cc2ccccc2-c2cccnc2)CCN(Cc2ccccc2)CC1 [CBK285522] | 85.7%
Cc1ccc2c(c1)C1(CCN(C/C=C\c3ccccc3)CC1)NC(=O)C2 [CBK040216] | 94.1%
N#Cc1ccc(COc2ccccc2)cc1 [CBK002738] | 96.4%
CC(=O)N1CCN(CCNc2ncnc3sc4c(c23)CCC(C)C4)CC1 (stereo not drawn) [CBK304897] | 93%
N=c1n(CCCOc2ccc(Br)cc2)c2ccccc2n1CC(N)=O [CBK268786C] | 86.9%
O=c1[nH]ccn1CCNc1ccc(-c2cccc3cccnc23)cn1 [CBK037658] | 79.2%
Cc1cccn2cc(-c3ccc4c(c3)CCN4S(C)(=O)=O)cc12 [CBK285226] | 95.5%
O=C(Nc1nnn[nH]1)C1(c2ccc([N+](=O)[O-])cc2)CCCC1 [CBK267237] | 93.7%
CC(C)(C)OC(=O)N1CCC(CNS(=O)(=O)c2cc(Cl)sc2Cl)CC1 [CBK086018] | 114%
O=[N+]([O-])c1ccc(O)c(/C=N/c2ccc3cc4ccc(/N=C/c5cc([N+](=O)[O-])ccc5O)cc4nc3c2)c1 [CBK261557] | 57.4%
Cc1ccc(S(=O)(=O)NC(Cc2ccccc2)C(=O)O)cc1 (stereo not drawn) [CBK217645] | 102%
Cc1cc(/C=N/NC(=O)C(=O)NCc2ccccn2)c(C)n1-c1cccc(Br)c1 [CBK263815] | 93.2%
COc1ccc(Cl)cc1/C=C/C(=O)NCc1ccc(C(=O)O)cc1 [CBK286908] | 89.3%
CC(C)(C)OC(=O)N1CCC[C@@H](C(=O)c2cccs2)C1 [CBK284310] | 82.1%
CC(=O)Nc1ccc(/N=C/c2ccc(Cl)cc2)cc1 [CBK015166] | 92.3%
O=C(Nc1ccccc1)Nc1ccccc1C(=O)NCc1ccccc1 [CBK265338] | 90.2%
Cc1[nH]c(=O)c(C#N)c(C)c1CCC(=O)NCc1cn2ccccc2n1 [CBK306325] | 93%
Cc1ccc2nc(NCC(=O)O)nc(-c3ccccc3)c2c1 [CBK287002] | 84.4%
Cc1nc(C(Cc2ccsc2)NC(=O)c2ccnn2C)sc1C (stereo not drawn) [CBK284778] | 87.6%
CCNc1nc(-c2ccc3[nH]ccc3c2)cn2ccnc12 [CBK038002] | 99.5%
COc1cc(Nc2cc(-c3ccco3)ncn2)cc(OC)c1OC [CBK090706] | 90.3%

Structure (SMILES) | viability at 28.5 h, 10 µM
O=C(CCc1nc(O)c2c3c(sc2n1)CCCC3)NCC(=O)Nc1ccccc1Br [CBK295348] | 101%
C=CCN1C(=O)C2(CC(=O)N(CC(=O)N(C)C)C2=O)c2cc(OC)ccc21 (stereo not drawn) [CBK075227] | 92.3%
COc1ccc2[nH]cc(CC(=O)Nc3cc(C)nc4ccccc34)c2c1 [CBK122732] | 88.8%
O=C(NCCc1ccccn1)c1ccc(Cl)cc1Cl [CBK015946] | 81.4%
NC(=O)C1CCN(C(=O)CN(c2ccccc2)S(=O)(=O)c2ccccc2[N+](=O)[O-])CC1 [CBK265320] | 78%
c1csc(-c2cncc(NCc3ccncc3)n2)c1 [CBK065583] | 94.6%
O=C(Nc1cccc(-c2cn3cccnc3n2)c1)c1cccc([N+](=O)[O-])c1 [CBK268963] | 93%
COc1ccc(-c2nc(NC(=O)c3ccco3)cnc2-c2cccc(C)c2)cn1 [CBK036954] | 96.8%
CC1CCCCN1CCCNC(=O)c1ccc(-c2nc(-c3ccc(C#N)cc3)cnc2N)cc1 (stereo not drawn) [CBK107139] | 111%
Cc1cc(C)n(CC2CCCCN2CC(=O)NC(C)c2ccco2)n1 (stereo not drawn) [CBK305331] | 87.9%
CC(Cc1cccs1)NC(=O)CSCc1ccco1 (stereo not drawn) [CBK283238] | 84.8%
c1ccc(CNCc2nc(-c3ccccc3)no2)cc1 [CBK024404] | 99.1%
N/C(Cc1ccc(Cl)cc1Cl)=N\OC(=O)c1cccc([N+](=O)[O-])c1 [CBK264317] | 91%
FC(F)(F)c1ccc(CN2CCCN(c3nccc(OCc4ccc(Cl)c(Cl)c4)n3)CC2)cc1 [CBK083949] | 94.5%
O=C(NC(Cc1c[nH]c2ccccc12)C(=O)O)c1ccco1 (stereo not drawn) [CBK217706] | 92.5%
COc1ccc(C(=O)NNC(=O)/C=C/c2ccc(C(C)C)cc2)cc1 [CBK261697] | 101%
O=C(NCC1CCCO1)[C@H]1CCCC[C@H]1C(=O)O (stereo partly drawn) [CBK287104] | 88.7%
CC(Cc1ccccn1)N(C)C(=O)c1cnn(-c2ccc(F)cc2)c1 (stereo not drawn) [CBK283316] | 99.6%
Cn1c(=O)c2c(nc(CN3CCN(Cc4ccccc4)CC3)n2CCCc2ccccc2)n(C)c1=O [CBK269582] | 90.9%
CC(=O)N1CCN2C(=O)c3cc(-c4ccc5c(c4)OCO5)ccc3NC(=O)[C@H]2C1 [CBK289597] | 90.1%
CC(C)(N)C(=O)N1CC(C(=O)NCCN(Cc2ccccc2)S(C)(=O)=O)C(c2ccccc2)C1 (stereo not drawn) [CBK014706T] | 93.3%

Structure (SMILES) | viability at 28.5 h, 10 µM
CN1CCN(CCOC(=O)N2CCN(C(c3ccccc3)c3ccccc3)CC2)CC1 [CBK200419] | 89%
CCN(CCc1nc2cc(OC)ccc2[nH]1)C(=O)c1ccc(=O)n(C)n1 [CBK307712] | 108%
CCn1cncc1C(=O)Nc1ccc(-n2ccnc2C(C)C)cc1 [CBK281379] | 95.8%
Cc1ccccc1NC(=O)NCc1ccccc1 [CBK105833] | 86.8%
CS(=O)(=O)N(CC(=O)Nc1ccc(S(=O)(=O)N2CCCCC2)cc1)c1ccc2c(c1)OCO2 [CBK268189] | 96.4%
O=C(CSc1nc(N2CCOCC2)nc(N2CCOCC2)n1)c1ccc([N+](=O)[O-])cc1 [CBK269107] | 86.9%
O=S(=O)(c1ccc(F)cc1)N1CCCC(c2nccnc2-c2ccc(F)cc2)C1 (stereo not drawn) [CBK286136] | 117%
CCc1cc(C(=O)NC(Cn2ccnc2)C(C)(C)C)cc(=O)[nH]1 (stereo not drawn) [CBK304410] | 101%
Cc1ccc2cc(CN(CC(C)C)S(C)(=O)=O)c(O)nc2c1 [CBK269593] | 101%
COC(=O)c1sc(NC(=O)c2cccnc2)c(C#N)c1C [CBK265007] | 89.4%
CO/N=C(N)/C(N)=N/OC [CBK019780] | 98.4%
Cc1ccccc1-n1ncc2c(=O)n(CC(=O)Nc3ccccc3)cnc21 [CBK287689] | 98.4%
CCOC(=O)N1CCCC(=O)c2c(C(=O)O)cn(C)c21 [CBK005301] | 86.4%
CC(=O)Oc1cccc(NC(=O)CC2Sc3ccccc3NC2=O)c1 (stereo not drawn) [CBK261792] | 92%
NC(=O)c1ccc(NC(=O)CCCc2nc(-c3ccccc3Cl)no2)cc1 [CBK268932] | 103%
C=CCOc1ccc(CNCCN2CCOCC2)cc1 [CBK278215C] | 94.3%
CC1CCc2c(sc3ncnc(OCC(=O)NC4CCCC4)c23)C1 (stereo not drawn) [CBK305893] | 83.1%
Cc1nc(-c2ccc(Cl)cc2)sc1C(=O)N1CCCC(C(=O)O)C1 (stereo not drawn) [CBK304407] | 91.9%
Cc1ccc(S(=O)(=O)Nc2ccc(Nc3cc(-c4cccc5oc6ccccc6c45)ncn3)cc2)cc1 [CBK090977] | 91.1%
CN1CCN(S(=O)(=O)c2ccc(C(C)(C)C)cc2)CC1 [CBK051237] | 106%

same assay, conditions: human, hela cells, % viability, bulk resorufin, single well

Structure (SMILES) | viability at 28.5 h, 10 µM
O=C(NO)Nc1ccc(Cl)c(Cl)c1 [CBK016929] | 96.3%
